Where a name gives a salt, the structure may show the parent alone.
Tested on: grape (species: "Italia")
Test: Fruit enlargement test, grape, dipping treatment of bunches
Type: in vivo
Conditions: for Mean bunch weight: 7 bunches; for One berry weight: bunch weight/total berry number
Description: Using grape (species: “Italia”) as a subject, a fruit enlargement test was done following the experimental summary described below. The test was carried out with 7 replication. Fifteen days after the full bloom, grape bunches were dipped in a chemical solution diluted to a predetermined concentration. The treated grape bunches were dried in air and grown as they were, until the bunches were harvested 43 days after the treatment to examine the bunch weight and the total number of grape berries. Five berries were randomly selected from each grape bunch of 5 replication among the test lots, for measuring the sugar level with a hand-held refracto-sugar meter manufactured by ATAGO CO., LTD (Type number: Nl). Additionally, a drug substance of gibberellin in powder (98% purity) was used as the gibberellin, while as the prohexadione calcium salt, a 27.5% formulation (the trade name: Viviful) was used, and as the trinexapac ethyl, a 25% formulation thereof (the trade name: Moddus) was used.
Material: Grape bunch “Italia” Fully bloomed on Sep. 21, 2006; starting the treatments on Oct. 6, 2006; harvested on Dec. 18, 2006: 7 bunches per one treatment lot.
C: Cont (control lot) G: dipping treatment in gibberellin (24.5 ppm) PCA: dipping treatment in prohexadione calcium salt (20 ppm, 100 ppm) GPCA: dipping treatment in gibberellin and prohexadione calcium salt (24.5 and 20 ppm, respectively or 24.5 ppm and 100 ppm, respectively) TR: dipping treatment in trinexapac ethyl (20 ppm, 100 ppm) G+TR: dipping treatment in gibberellin and trinexapac ethyl (24.5 ppm and 20 ppm, respectively or 24.5 ppm and 100 ppm, respectively).
Herein, statistical analysis was done by the Tukey's HSD test (p=0.05). Significant difference is observed between different alphabets.

| Structure (SMILES) | Mean bunch weight (20 ppm) [g] | One berry weight (20 ppm) [g] | Mean bunch weight (100 ppm) [g] | One berry weight (100 ppm) [g] |
| --- | --- | --- | --- | --- |
| CCOC(=O)C1CC(=O)C(=C(O)C2CC2)C(=O)C1 (centres unmarked) [TR, trinexapac ethyl] | 487.1 | 7.9 | 474.3 | 6.7 |
| CCC(=O)C1=C(O)CC(C(=O)O)CC1=O (centres unmarked) [PCA, prohexadione calcium salt] | 452.9 | 7.3 | 390.0 | 6.4 |

— patent US20080280765A1, “Method of Promoting Enlargement Growth of Agricultural and Horticultural Crops” (priority 2006, published 2008)
